Source: PMC5656596, “Yucasin DF, a potent and persistent inhibitor of auxin biosynthesis in plants” (Scientific Reports, 2017)

Columns and labels:
AtYUC6 (YUC6) [1] = target: T1, AtYUC6 (YUC6) (Arabidopsis thaliana, UniProt Q8VZ59); assay: photoaffinity labelling, Staudinger-Bertozzi ligation to fluorescent phosphine, SDS-PAGE; type: binding; conditions: 20 µM probe, 254 nm UV, on ice, 10 mM phosphate buffer; active site, competitive with IPA and PPA; covalent; labelled compound
T1 construct: purified recombinant
T1 sequence (Q8VZ59 1-417): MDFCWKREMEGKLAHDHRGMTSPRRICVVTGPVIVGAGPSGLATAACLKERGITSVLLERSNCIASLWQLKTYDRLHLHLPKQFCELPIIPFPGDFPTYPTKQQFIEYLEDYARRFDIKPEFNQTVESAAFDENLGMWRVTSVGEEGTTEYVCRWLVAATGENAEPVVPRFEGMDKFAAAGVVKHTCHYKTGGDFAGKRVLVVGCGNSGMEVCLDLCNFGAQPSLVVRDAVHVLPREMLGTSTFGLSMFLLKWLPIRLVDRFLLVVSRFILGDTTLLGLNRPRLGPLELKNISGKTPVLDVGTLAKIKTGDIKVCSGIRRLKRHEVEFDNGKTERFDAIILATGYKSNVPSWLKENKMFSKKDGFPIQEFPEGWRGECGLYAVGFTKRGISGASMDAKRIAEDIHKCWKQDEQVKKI

[2] = target: T2, AtYUC1 (AtYUC1-His, YUC1) (Arabidopsis thaliana, UniProt Q9SZY8); assay: LC-MS/MS of IAA formed from IPA; type: biochemical; conditions: 20 µM IPA, 40 µM FAD, 1 mM NADPH, 10 mM Tris-HCl pH 7.5, 35 °C, 30 min
T2 construct: recombinant His-tagged, pET-53-DEST, E. coli BL21 Star (DE3), TALON purified, tag kept
T2 sequence (Q9SZY8 1-414): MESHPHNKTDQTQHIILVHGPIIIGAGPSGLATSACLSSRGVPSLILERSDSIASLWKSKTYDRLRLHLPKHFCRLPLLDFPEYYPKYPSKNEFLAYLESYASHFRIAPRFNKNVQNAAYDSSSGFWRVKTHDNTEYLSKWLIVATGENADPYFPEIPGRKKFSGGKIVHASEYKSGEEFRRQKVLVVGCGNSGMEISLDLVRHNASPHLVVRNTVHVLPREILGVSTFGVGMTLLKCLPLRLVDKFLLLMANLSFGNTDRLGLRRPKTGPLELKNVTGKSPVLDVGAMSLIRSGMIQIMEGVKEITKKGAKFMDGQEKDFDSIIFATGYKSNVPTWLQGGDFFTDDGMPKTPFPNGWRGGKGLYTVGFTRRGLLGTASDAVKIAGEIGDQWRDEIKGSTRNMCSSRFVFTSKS

AtYUC6 (YUC6) [3] = target: T1, AtYUC6 (YUC6); assay: competition with photoaffinity probe labelling; type: binding; conditions: active site

[N-]=[N+]=NCc1cc(N=[N+]=[N-])cc(-c2n[nH]c(=S)[nH]2)c1 [photoaffinity yucasin probe]
photoaffinity labelling, Staudinger-Bertozzi ligation to fluorescent phosphine, (AtYUC6 (YUC6) [1]): A fluorescent signal from the photoaffinity-labeled probe of YUC6 was detected

S=c1[nH]nc(-c2ccc(Cl)cc2)[nH]1 [yucasin, 5-[4-chlorophenyl]-2,4-dihydro-[1,2,4]-triazole-3-thione]
enzyme activity at 1 or 10 μM inhibitor [2]: Yucasin inhibited the recombinant YUC1 enzyme activity more potent than YDF

O=C(O)C(=O)Cc1ccccc1 [PPA]
competition with photoaffinity probe labelling (AtYUC6 (YUC6) [3]; 200 µM PPA against 20 µM probe): The fluorescent signal disappeared when the probe was photoactivated in the presence of the substrates

O=C(O)C(=O)Cc1c[nH]c2ccccc12 [IPA]
competition with photoaffinity probe labelling (AtYUC6 (YUC6) [3]; 200 µM IPA against 20 µM probe): The fluorescent signal disappeared when the probe was photoactivated in the presence of the substrates

Fc1cccc(F)c1-c1n[nH]c(=S)[nH]1 [compound 1, 5-[2,6-difluorophenyl]-2,4-dihydro-[1,2,4]-triazole-3-thione]
enzyme activity at 1 or 10 μM inhibitor [2]: we measured the inhibitory activity of YDF on the recombinant AtYUC1 enzyme
